Experimental data as given in US8722713B2, “Synergistic antimicrobial composition of 1,2-benzisothiazolin-3-one and tris(hydroxymethyl)nitromethane” (Dow Global Technologies LLC, priority 2010, dated 2014).

Columns and labels:
[1] = tested on: Psedomonas aeruginosa ATCC 10145 and Staphylococcus aureus ATCC 6538; test: Biocidal efficacy (MBC, complete kill) against aerobic bacteria in contaminated NaCl solution; format: cell-based; conditions: 37° C., 24 hour, ~10^6 CFU/ml
Method: A sterile NaCl solution (0.85%) was contaminated with Psedomonas aeruginosa ATCC 10145 and Staphylococcus aureus ATCC 6538 at final bacterial concentration of ˜10^6 CFU/ml. The aliquots of this contaminated water were then treated with BIT, Tris Nitro, or the BIT/Tris Nitro combination at different active concentration levels. […] Table 2 summarizes the efficacy of each biocide and their blends, and the Synergy Index of each combination.

[2] = tested on: oil field isolated anaerobic consortium, mainly SRB; test: Biocidal efficacy (MBC) against anaerobic bacteria in contaminated salt solution; format: cell-based; conditions: 40° C., 24 hour, 10^6 to 10^7 CFU/mL
Method: Inside an anaerobic chamber (Bactron anaerobic chamber), a deaerated sterile salt solution (3.1183 g of NaCl, 1.3082 mg of NaHCO3, 47.70 mg of KCl, 72.00 mg of CaCl2, 54.49 mg of MgSO4, 172.28 mg of Na2SO4, 43.92 mg of Na2CO3 in 1 L water) was contaminated with an oil field isolated anaerobic consortium, mainly SRB, at final bacterial concentrations of 10^6 to 10^7 CFU/mL. The aliquots of this contaminated water were then treated with BIT, Tris Nitro, or the BIT/Tris Nitro combinations at different active concentration levels. After the mixtures were incubated at 40° C. for 24 hour, the biocidal efficacy was determined by minimum tested biocide concentration for bacteria kill in the aliquots (MBC). Table 1 summarizes the efficacy of each biocide and their blends, and the Synergy Index* of each combination.

SMILES	Dosage required for complete kill (active ppm) Tris Nitro ([1]; concentration of Tris Nitro at MBC) [active ppm]	MBC (active ppm) Tris Nitro ([2]; concentration of Tris Nitro at minimum tested biocide concentration for bacteria kill) [active ppm]	Dosage required for complete kill (active ppm) BIT ([1]; concentration of BIT at MBC) [active ppm]	MBC (active ppm) BIT ([2]; concentration of BIT at minimum tested biocide concentration for bacteria kill) [active ppm]
O=[N+]([O-])C(CO)(CO)CO [0:1, tris(hydroxymethyl)nitromethane]	25.7	>100	–	–
O=c1[nH]sc2ccccc12 [1:0, 1,2-benzisothiazolin-3-one]	–	–	>25	17.3
